Reference: PubChem BioAssay AID602267 (Broad Institute, 2012)
Calls of active or inactive are those of the source.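 The calls were made as follows: active = signal falls with dose and the fitted half-maximal concentration is at or below twice the top valid tested dose; inconclusive = flat curve with 30 to 70% inhibition, or poor fit; inactive = wrong direction, flat within 30%, or potency beyond limit.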

Biological target: Golgi-associated PDZ and coiled-coil motif-containing protein (Homo sapiens) (UniProt Q9HD26)
Experiment: blockers of CAL PDZ ligand groove binding – biochemical, fluorescence polarization, untagged CAL PDZ, cherry-pick, dose response (AID 602267)
Details: purified CAL PDZ, TMR-peptide fluorescence polarization, 1 h

SMILES | activity change, negative = inhibition (at 50 µM (top of the series)) | other results
COC(=O)CN1C(=O)N/C(=C/c2cc(Cl)c(OC)c(OC)c2)C1=O | inactive | –
Cc1ccnc2nc(C(=O)OCCOc3ccc(F)cc3)nn12 | inactive | –
FC(F)(F)Oc1ccc(NC(=S)NCCCN2CCOCC2)cc1 | inactive | –
CCC(C(=O)NN1C(=O)c2ccccc2C1=O)c1ccccc1 (configuration not stated) | inactive | –
COc1ccc(CC(=O)N2CCC(CCC(=O)Nc3ccccc3)CC2)cc1 | inactive | –
O=C1OC(c2ccccc2)(c2ccccc2)c2ccccc21 | inactive | –
COC(=O)C1CCN(C(=O)/C(C)=C\c2ccccc2)CC1 | inactive | –
O=C(CCN1C(=O)c2ccccc2C1=O)CN1CCOCC1 | inactive | –
COc1cc(S(=O)(=O)n2nc(C)cc2C)ccc1Cl | inactive | –
CC1=NN(C(N)=S)C(=O)C1N=Nc1ccc(Cl)cc1 (configuration not stated) | inactive | –
COc1ccc(C(C)=O)cc1COC(=O)CNC(=O)c1ccccc1F | inactive | –
O=C(NC1CCCN(Cc2ccc(Cl)cc2)C1)c1cccc(N2CCCC2=O)c1 (configuration not stated) | inactive | –
CCOCCCNC(=S)N1CCN(c2nc(-c3ccccc3)cs2)CC1 | inactive | –
CC1=C(C#N)C(Nc2ccc(Cl)cn2)(C(F)(F)F)C(=O)N1 (configuration not stated) | inactive | –
C=CCn1c(NC(=O)c2ccco2)nc2ccccc21 | inactive | –
O=C(c1cc2cc([N+](=O)[O-])ccc2oc1=O)N1CCN(C2CCCCC2)CC1 | inactive | –
Cc1ccc(S(=O)(=O)N2CCN(C(=O)c3ccccn3)CC2)cc1 | inactive | –
COc1ccc2noc3c2c1C(=O)c1ccccc1-3 | – | AC50: 1780 nM
O=C(COc1ccc(Cl)cc1Cl)Nc1nnc(C2=COCCO2)o1 | inactive | –
CC(NS(=O)(=O)c1ccc(Cl)c(Cl)c1)C(=O)OCC(=O)Nc1ccc2c(c1)OCO2 (configuration not stated) | inactive | –
C=CCN1C(=O)/C(=C/c2ccsc2)SC1=S | inactive | –

SMILES | activity change, negative = inhibition (at 50 µM (top of the series)) | other results
c1cc(-c2nnc(-c3ccncc3)o2)ccn1 | inactive | –
N#C/C(=C\c1c[nH]c2ccccc12)C(=O)NC1CC1 | inactive | –
CCn1c(=O)c(C(C)=O)c(O)c2ccccc21 | inactive | –
COC(=O)C(C(=O)OC)c1ccc(N)cc1 | inactive | –
CC(C)CNC(=O)CN1C(=O)NC(Cc2c[nH]c3ccccc23)C1=O (configuration not stated) | inactive | –
CCc1nc(SCC(=O)c2ccccc2)c2c(=O)n(C)c(=O)n(C)c2n1 | inactive | –
O=C1OC2(CCCCC2)OC(=O)C1=CNc1nc2ccccc2s1 | inactive | –
O=C(Cc1ccccc1)NN=C1CCCC1 | inactive | –
COCc1cc(C)nc(SCc2ccccc2)c1C#N | inactive | –
Cc1nc2ccc(Br)cn2c1C(=O)N/N=C\c1ccc(C(C)C)cc1 | inactive | –
Cc1ccc(-n2c(SCC(N)=O)nnc2-c2ccco2)cc1 | inactive | –
O=C(c1ccc([N+](=O)[O-])cc1)N1CCC(Cc2ccccc2)CC1 | inactive | –
CCc1noc(C)c1C(=O)N1CCCC(CCC(=O)NCc2ccc(F)c(F)c2)C1 (configuration not stated) | inactive | –
COC(=O)c1cccc([N+](=O)[O-])c1CS(=O)(=O)c1ccc(C)cc1 | inactive | –
O=C(NNC(=O)c1ccc(Cl)c(Cl)c1)c1cccnc1 | inactive | –
COCC(=O)Nc1ccc2nc3n(c(=O)c2c1)CCCCC3 | inactive | –
CC(=O)Nc1cccc(NC(=O)CSc2nnc(NC(=O)c3ccco3)s2)c1 | inactive | –
C=CCNC(=O)CC1Nc2c3ccccc3nc(=S)n2C1=O (configuration not stated) | inactive | –
Cc1cc(C)c(OCC(=O)OC(C)C(=O)NC2CC2)c(C)c1 (configuration not stated) | inactive | –
CC(=O)N1CCN(c2ccc(NC(=O)C(c3ccccc3)c3ccccc3)cc2)CC1 | inactive | –
COc1cccc(NC(=O)N2CCCCCC2)c1 | – | activity change, negative = inhibition (at 16 µM (top of the series)): inactive
